Ends that are not written are not given here. Peptide text beside a SMILES is read from it. * marks the point of attachment. Cbz = O=C(OCc1ccccc1)*
Experiments:
Mcl-1 and Mule = experiment: Co-immunoprecipitation of Mule with Flag-Mcl-1 from Flag-Mcl-1 expressing cells; assay type: cell-based; conditions: anti-Flag immunoprecipitation
From the text: We next tested whether Mule interacts with Mcl-1 in vivo. Cell extracts from Flag-Mcl-1 expressing cells were immunoprecipitated with an anti-Flag monoclonal antibody. The immunoprecipitates were then subjected to SDS-PAGE and immunoblotted with antibodies against Flag or Mule. The antibody against Flag precipitated Flag-Mcl-1 in Flag-Mcl-1 expressing cells but not in the control cells. The Flag antibody also precipitated Mule, and the amount of co-precipitated Mcl-1 and Mule increased upon treatment with the proteasome inhibitor MG132.

proteasome = experiment: Western blotting for Mcl-1 in Hela cells treated with proteasome inhibitor; assay type: cell-based, human; conditions: anti-Mcl-1 western blotting
From the text: Proteins targeted for proteasome degradation are usually modified by a poly-ubiquitin chain (Hershko and Ciechanover, 1998). To test whether Mcl-1 is ubiquitinated, we treated Hela cells with a proteasome inhibitor MG132 to block the proteasome activity and performed western blotting analysis for Mcl-1 to test for the accumulation of higher molecular weight forms that could be ubiquitin modified. […] To verify these higher molecular weight bands were indeed caused by polyubiquitin conjugation of Mcl-1, the protein was immunoprecipitated by an anti-Mcl-1 antibody and the immuno-precipitate was probed by an anti-ubiquitin antibody.

caspase-3 = experiment: Caspase-3 activation (cleavage) and PARP cleavage after cisplatin treatment; assay type: cell-based, human
From the text: We then treated cells with their Mule level knocked down with several DNA damaging agents including UV-irradiation and two commonly used chemotherapeutic drugs etoposide and cisplatin. […] We therefore performed a detailed biochemical analysis in cells treated with this drug with or without Mule knocked down.

U2OS cells [1] = experiment: Colony growth 8 days after 6 hours of cisplatin treatment; assay type: cell-based, human; conditions: 6 hours treatment, 8 days culture
Experimental: To test whether the delayed apoptosis when Mule was knocked down has a long last effect, cells were switched to fresh medium after 6 hours of cisplatin treatment and continued culture for 8 days.

U2OS cells [2] = experiment: Cell death induced by DNA damaging agents with Mule knocked down; assay type: cell-based, human; conditions: for cell death induced by the agent: Mule knocked down versus not
Experimental: The Mule shRNA construct was co-transfected with tetracycline repressor expression construct into 5×10^5 attached U2OS cells grown in DMEM with 10% FBS using Lipofectamine transfection reagent (Invitrogen) according to the manufacturer's protocol. One day later, the cells were selected against 1 μg/ml blasticidine and 2 μg/ml puromycin. After two weeks, individual clones were lifted and tested for expression of tetracycline repressor. Positive clones were further tested for Mule shRNA expression. Clones were treated with 2 μg/ml tetracycline for 3 days. Cell extracts were collected and subjected to 6% SDS-PAGE and western blotting with anti-Mule monoclonal antibody. Clones with the best inducible knock down of Mule were chosen for further experiments. […] We then treated cells with their Mule level knocked down with several DNA damaging agents including UV-irradiation and two commonly used chemotherapeutic drugs etoposide and cisplatin. […] We therefore performed a detailed biochemical analysis in cells treated with this drug with or without Mule knocked down.

Mule (Homo sapiens) = target: T1, Mule (Homo sapiens); experiment: In vitro Mcl-1 ubiquitination assay, reconstituted system, competition by BH3 peptides; assay type: biochemical; conditions: peptide at 4 μM
T1 construct: The cDNA of full-length human Mule was subcloned into Sal I and Not I sites of pFastBac-1; made in house; host or cells: Sf21 insect cells, baculovirus (pFastBac-1)
T1 sequence (Q07820 whole entry): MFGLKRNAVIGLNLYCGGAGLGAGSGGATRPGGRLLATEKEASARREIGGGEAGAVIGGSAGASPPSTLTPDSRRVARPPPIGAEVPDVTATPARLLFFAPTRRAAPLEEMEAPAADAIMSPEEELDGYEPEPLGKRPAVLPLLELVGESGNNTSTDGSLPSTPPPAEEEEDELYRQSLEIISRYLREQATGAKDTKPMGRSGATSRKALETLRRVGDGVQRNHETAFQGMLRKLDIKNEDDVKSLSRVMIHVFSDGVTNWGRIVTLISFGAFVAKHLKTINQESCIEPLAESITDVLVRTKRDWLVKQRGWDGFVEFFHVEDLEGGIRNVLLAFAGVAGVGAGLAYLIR
Experimental: (§1) In vitro Ubiguitination assay: In 15 ul reaction, 200 ng of recombinant Flag-Mcl-1 is incubated with an ATP regenerating system (50 mM Tris pH 7.6, 5 mM MgCl2, 2 mM ATP, 10 mM creatine phosphate, 3.5 U/ml of creatine kinase), 10 μg of Methyl-Ubiquitin, 10 ng human E1, 100 ng Ubch7, 2 μM of ubiquitin aldehyde, and 10 μg of S100 or designated fractions, at 37° C. for one hour. After terminating the reactions with SDS sample buffer, reaction products were fractionated by SDS-PAGE (10%) and analyzed by western blotting with anti-Flag M2 antibody during purification and anti-Mcl-1 when purified components were used.
We used methylated ubiquitin for further biochemical analysis because it gave clearer signal. Mule ubiquitinated Mcl-1 in a dose-dependent manner, and the ubiquitination activity relied on the presence of E1 and E2.
The members of Bcl-2 family of proteins containing only the BH3 domain use this domain to interact with other family members. If Mule also uses its BH3 domain to interact with Mcl-1, a peptide containing this domain should compete for Mule-Mcl-1 interaction therefore blocking Mcl-1 ubiquitination in the reconstituted system. To test this hypothesis, we synthesized a 26 amino acid Mule BH3-containing peptide and a mutant peptide in which four hydrophobic residues required for protein-protein interaction were switched with […] (4E).

Mcl-1 [3] = target: T2, Mcl-1 (Homo sapiens, UniProt Q07820); experiment: Biotin-labeled BH3 peptide pull down from HeLa S100; assay type: binding; design: endogenous in cells; host or cells: HeLa S100
T2 sequence (Q07820 whole entry, the tested form may be a part): as the sequence (Q07820 whole entry) above
From the text: (§2) To examine whether BH3 domain of Mule is sufficient for interaction with Mcl-1, we used a biotin-labeled version of the 26 amino acids Mule BH3 peptide (aa 1969-1994) and the 4E mutant to pull down proteins from cell extracts.

Bcl-2 = target: T3, Bcl-2 (Homo sapiens, UniProt P10415); experiment: as above; assay type: binding
T3 construct: endogenous in cells; host or cells: HeLa S100
T3 sequence (P10415 whole entry): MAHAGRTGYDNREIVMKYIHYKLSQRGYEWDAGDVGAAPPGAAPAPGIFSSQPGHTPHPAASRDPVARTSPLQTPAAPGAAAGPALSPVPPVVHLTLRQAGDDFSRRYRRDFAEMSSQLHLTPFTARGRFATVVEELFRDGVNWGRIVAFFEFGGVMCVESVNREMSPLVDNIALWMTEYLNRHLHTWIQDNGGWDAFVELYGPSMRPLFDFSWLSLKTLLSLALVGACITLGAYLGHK
From the text: as §2

Bcl-xL = target: T4, Bcl-xL (Homo sapiens, UniProt Q07817); experiment: as above; assay type: binding
T4 construct: endogenous in cells; host or cells: HeLa S100
T4 sequence (Q07817 whole entry): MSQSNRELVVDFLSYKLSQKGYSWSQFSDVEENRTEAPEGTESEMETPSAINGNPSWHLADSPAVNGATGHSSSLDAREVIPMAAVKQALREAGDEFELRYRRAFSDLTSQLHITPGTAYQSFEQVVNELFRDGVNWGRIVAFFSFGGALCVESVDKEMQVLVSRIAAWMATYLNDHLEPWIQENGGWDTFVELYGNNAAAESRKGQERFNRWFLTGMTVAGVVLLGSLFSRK
From the text: as §2

Bax = target: T5, Bax (Homo sapiens, UniProt Q07812); experiment: as above; assay type: binding
T5 construct: endogenous in cells; host or cells: HeLa S100
T5 sequence (Q07812 whole entry): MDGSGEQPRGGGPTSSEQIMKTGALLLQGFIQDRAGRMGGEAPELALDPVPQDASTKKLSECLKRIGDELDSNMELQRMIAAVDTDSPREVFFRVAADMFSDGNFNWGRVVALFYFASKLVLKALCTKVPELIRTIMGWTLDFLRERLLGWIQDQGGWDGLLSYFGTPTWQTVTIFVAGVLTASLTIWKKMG
From the text: as §2

Mcl-1 [4] = target: T2, Mcl-1; experiment: In vitro Mcl-1 ubiquitination by purified recombinant Mule; assay type: biochemical; conditions: in the presence of E1, Ubch7 (E2), ATP regenerating system; ubiquitin, methylated or GST-tagged ubiquitin
Experimental: as §1
The cDNA of full-length human Mule was subcloned into Sal I and Not I sites of pFastBac-1 (Invitrogen). Mule expression baculovirus were prepared according to manufacture's manual (Bac-to-Bac Baculovirus expression system, Invitrogen, Carlsbad, Calif.). Insect cells Sf21 were infected with the P3 virus. The cells were harvested after 2 days of infection. Cell pellet was re-suspended in buffer A and homogenized with a glass douncer (pellet of 1 L culture of infected Sf21 cells was resuspended in 50 ml of buffer A). The homogenate was centrifuged at 100,000 g (SW28 rotor, 25,000 rpm) for 1 hr. The S100 (2 g total protein) were filtered and loaded onto Q column (hand-packed 36 ml of Q Sepharose XL beads). […]

Compound: CC(C)C[C@@H](C=O)NC(=O)[C@H](CC(C)C)NC(=O)[C@H](CC(C)C)NC(=O)OCc1ccccc1 [MG132] (Cbz-Leu-Leu-Leu-aldehyde)
- amount of co-precipitated Mcl-1 and Mule (Mcl-1 and Mule): increased
- accumulation of higher molecular weight (polyubiquitinated) forms of Mcl-1 (proteasome): Higher molecular weight protein bands were detected

Compound: N.N.[Cl][Pt][Cl] [cisplatin]
- start of (weak) caspase-3 activation after treatment (caspase-3; Mule knocked down): 8 h
- caspase-3 activation (caspase-3; Mule knocked down, 6 hours after treatment): did not see any caspase-3 activation
- start of caspase-3 activation after treatment (caspase-3; cells with Mule present): 4 h
- cleavage of PARP (caspase-3; with or without Mule knocked down): showed the same pattern
- colonies relative to cells containing Mule (U2OS cells [1]; Mule knocked down): more than nine fold more colonies
- colonies grown up (U2OS cells [1]; cells containing Mule): few if any colonies
- ability to induce apoptosis among the DNA damaging agents (U2OS cells [2]; Mule knocked down): least ability to induce apoptosis
- cell death induced by the agent (U2OS cells [2]): reduced when Mule was knocked down

Compound: COc1cc([C@@H]2c3cc4c(cc3[C@@H](O[C@@H]3O[C@@H]5CO[C@@H](C)O[C@H]5[C@H](O)[C@H]3O)[C@H]3COC(=O)[C@H]23)OCO4)cc(OC)c1O [etoposide]
- cell death induced by the agent (U2OS cells [2]): reduced when Mule was knocked down

Compound: Mule BH3 peptide: synthesized 26 amino acid Mule BH3-containing peptide (aa 1969-1994); biotin-labeled version used for pull down (PGVMTQEVGQLLQDMGDDVYQQYRSL; also: biotin-labeled (position not given here); UniProt Q7Z6Z7 1969-1994, looked up, fragment)
- block of Mcl-1 ubiquitination (Mule (Homo sapiens)): efficiently block Mcl-1 ubiquitination
- pull down of Mcl-1 (Mcl-1 [3]): specifically pulled down Mcl-1
- pull down of Bcl-2 (Bcl-2): not Bcl-xL, Bcl-2, and Bax
- pull down of Bcl-xL (Bcl-xL): not Bcl-xL, Bcl-2, and Bax
- pull down of Bax (Bax): not Bcl-xL, Bcl-2, and Bax

Compound: recombinant Mule: purified recombinant full-length human Mule protein, baculovirus-based expression system; Mcl-1 ubiquitin ligase E3
- stimulation of Mcl-1 ubiquitination (Mcl-1 [4]): able to stimulate Mcl-1 ubiquitination
